Key:
[1] = tested on: cancer cell lines not having gene mutations identified by the CRISPR screen analysis; experiment: In vitro combination of itraconazole with lysosome targeting agents; format: cell-based; conditions: for sensitivity of cell lines to itraconazole when treated with the agent: cell lines without the CRISPR-identified mutations
[2] = tested on: TOV1946 stably expressing GFP conjugated TFEB; experiment: TFEB nuclear translocation; format: cell-based; conditions: CQ 10 μM alone or with Itra 5 μM
Description: FIGS. 11A-B. FIG. 11A) Top, analysis of lysosomal pattern by LAMP1 immunofluorescence and relative quantification in TOV21g treated with Itra 5 μM (15)+/−CQ 5 μM (CQ5). Bottom, Analysis of lysosomal function and relative quantification in TOV21g treated as above. FIG. 11B) Analysis and quantification of TFEB nuclear translocation in TOV1946 stably expressing GFP conjugated TFEB and treated with Itra 5 μM (5) +/−CQ 10 μM (CQ10).
Member of the microphtalmia (MiT) family (TFEB, […], TFE3) are transcription factors activated in starvation or lysosomal dysfunction conditions. Once activated, they translocate to the nucleus where they promote the expression of a network of genes related to lysosomal function and biogenesis^50.

[3] = Tissue pharmacokinetic analyses (HPLC-MS/MS) of tumour biopsies; format: in vivo, human; conditions: for intratumor concentration (highest): patient HYDRA-005, DL1, on-treatment biopsy; for estimated tissue concentration: patient HYDRA-005 for Itra, assuming 1 μg of tissue corresponds to 1 μl; for detection in tumour biopsies: post-treatment samples, ten patients, none of the pre-treatment samples
Description: Tumour assessment occurred every 8 weeks (+/−1 week) by CT scan. Toxicity was assessed by Common Terminology Criteria (CTCAE) version 4.0. Pre- and on treatment biopsies (on cycle 1, day 8 to 14) were mandatory. Tumour Itra and HCQ concentrations were determined by a HPLC-MS/MS method with itraconazole-D9 and hydroxychloroquine-D4 as the internal standard. The HPLC system was interfaced to a SCIEX TRIPLE QUAD 6500+ mass spectrometer operating in the […] electrospray ionization mode. Data collection, peak integration, and calculation were performed using Analyst® 1.7 software.

Q: With CO/C1=C\C(C)=C\[C@@H](C)[C@@H](O)[C@@H](C)C/C(C)=C/C=C/[C@H](OC)[C@@H]([C@@H](C)[C@@H](O)[C@H](C)[C@@]2(O)C[C@@H](O)[C@H](C)[C@@H](C(C)C)O2)OC1=O [Bafilomycin A] as the molecule, how does the “sensitivity of cell lines to itraconazole when treated with the agent” value [1] read?
A: The value was “increased sensitivity to itraconazole”.

Q: And the “effect of Itra combined with lysosome targeting agent” value ([1]; data not shown)?
A: The value was “combined effect”.

Q: With CCN(CC)CCCC(C)Nc1ccnc2cc(Cl)ccc12 (stereo not shown) [CQ, chloroquine] as the molecule, how does the “TFEB nuclear translocation, cells” value [2] read?
A: The value was “about 50%”.

Q: With CCN(CCO)CCCC(C)Nc1ccnc2cc(Cl)ccc12 (stereo not shown) [HCQ, hydroxychloroquine] as the molecule, how does the “intratumor concentration (highest)” value [3] read?
A: Its value is 3.5 ng/mg of tissue.

Q: What about the estimated tissue concentration [3] of the same molecule?
A: Its estimated tissue concentration is 5 to 10 µM.

Q: And the “detection in tumour biopsies” value [3]?
A: The value was “detectable in all patients”.

Q: Which results are given for CCC(C)n1ncn(-c2ccc(N3CCN(c4ccc(OCC5COC(Cn6cncn6)(c6ccc(Cl)cc6Cl)O5)cc4)CC3)cc2)c1=O (stereo not shown) [Itra, Itraconazole]?
A: intratumor concentration (highest) [3]: 0.745 ng/mg of tissue; estimated tissue concentration [3]: ≤ 1 µM; detection in tumour biopsies [3]: detectable in all patients

Q: With CC/C(=C(\c1ccccc1)c1ccc(OCCN(C)C)cc1)c1ccccc1 [tamoxifen] as the molecule, how does the “sensitivity of cell lines to itraconazole when treated with the agent” value [1] read?
A: The value was “increased sensitivity to itraconazole”.

Source: patent US20220401438A1, “CANCER THERAPEUTIC METHODS” (University Health Network, priority 2021, published 2022)
